Experimental data: PubChem BioAssay (NCI)
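These data come from cells grown in 96-well plates and exposed to compound for 48 hours at five concentrations. GI50 marks 50% less growth. The concentration for full growth arrest is given as TGI.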

Assays:
Experiment in all cases: NCI tumour cell line growth inhibition, 48 h
[1] = system: 786-0 renal
[2] = system: A549 NSCLC
[3] = system: HT29 colon
[4] = system: KM12 colon
[5] = system: MDA-MB-435
[6] = system: NCI/ADR-RES ovarian
[7] = system: PC-3 prostate
[8] = system: SNB-19 CNS
[9] = system: U251 CNS
[10] = system: UACC-62 melanoma

| SMILES | GI50 [1] [nM] | TGI [1] [µM] | GI50 [2] [µM] | TGI [2] [µM] | GI50 [3] [nM] | TGI [3] [µM] | GI50 [4] [nM] | TGI [4] [µM] | GI50 [5] [nM] | TGI [5] [µM] | GI50 [6] [µM] | TGI [6] [µM] | GI50 [7] [nM] | TGI [7] [µM] | GI50 [8] [µM] | TGI [8] [µM] | TGI [9] [µM] | GI50 [10] [nM] | TGI [10] [µM] | GI50 [9] [nM] |
| --- | --- | --- | --- | --- | --- | --- | --- | --- | --- | --- | --- | --- | --- | --- | --- | --- | --- | --- | --- | --- |
| COC(C)(C)[C@@H](O)[C@H](O)C[C@H](C)C1=C2CC[C@@H]3[C@@]4(C)CC[C@@H](OC(C)=O)C(C)(C)[C@@H]4C[C@@H](OC4OC(COC(C)=O)C(O)C(O)C4O)[C@@]3(C)[C@]2(C)CC1 (some centres undefined) | 14400 | 27.5 | 7.77 | 20.3 | 5080 | 16.9 | 3550 | 18.9 | 12300 | 25.6 | 15.2 | 29.4 | 5680 | 18.5 | 12.2 | 25.1 | 22.5 | 8790 | 21.7 | – |
| CN1C(=O)c2ccc3ccccc3c2C1=O | – | > 100 | – | > 100 | – | > 100 | – | > 100 | – | > 100 | – | > 100 | – | > 100 | – | > 100 | > 100 | – | > 100 | – |
| COc1ccc([C@H](CC(=O)O)N2CCN(CCCc3ccc4c(n3)NCCC4)C2=O)cn1 | 346 | > 100 | 3.07 | > 30.3 | 794 | > 100 | > 100000 | > 100 | 21.6 | 0.0602 | > 100 | > 100 | > 100000 | > 100 | 0.426 | > 100 | > 100 | > 100000 | > 100 | 934 |
| CC1=CC2C(C(O)CC3(C)C2CC(C)C32OCOC23COCO3)C2(C)C/C(=C/O)C(=O)C=C12 (centres undefined) | 1830 | 3.55 | 3.02 | 10.7 | 1790 | 5.01 | 2390 | 4.77 | 1780 | 3.64 | 2.28 | 4.8 | 1710 | 4.4 | 3.22 | 12 | 3.27 | 1760 | 3.83 | 1660 |
| COc1ccc2c(c1)[n+](=O)c(C(=O)c1cccs1)c(C(F)(F)F)n2[O-] | 17000 | > 50 | 7.99 | > 50 | 8650 | > 50 | 3960 | 25.4 | 12200 | > 50 | 4.99 | > 50 | 2420 | 18.6 | 10.7 | > 50 | > 50 | 5760 | 19.5 | 10300 |
| Cc1ccc(/C=C(\C#N)c2cc3ccccc3n2C)cc1 | 709 | > 100 | 0.463 | > 100 | 356 | > 100 | 428 | > 100 | 50.2 | 0.334 | 0.361 | > 100 | 403 | > 100 | 0.414 | > 100 | > 100 | 278 | > 100 | 406 |
| O=c1[nH]c(=O)n(C2CC(O)C(CO)O2)cc1Oc1ccccc1 (centres undefined) | – | > 100 | – | > 100 | – | > 100 | – | > 100 | – | > 100 | – | > 100 | – | > 100 | – | > 100 | > 100 | – | > 100 | – |
| CN(C)Cc1ccc(-c2cc3onc(-c4ccccc4)c3c(=O)n2C)cc1 | – | 35 | – | 36.9 | – | 29.8 | – | 43.8 | – | 59.8 | – | > 100 | – | > 100 | – | > 100 | 64.8 | – | 75 | – |
| COc1cc2c3c(n(CCCN)c(=O)c2cc1OC)-c1ccc([N+](=O)[O-])cc1C3=O | 1660 | 3.55 | 9.88 | 34.7 | 5070 | 21.4 | 14600 | 31 | 15900 | 37.5 | 14 | > 100 | 7630 | 22.9 | 3.11 | 18.3 | 19.8 | 11500 | 25.1 | 4940 |
| CN(C)C(=O)Nc1nc2cc(Cl)c(Cl)cc2[nH]1 | 1210 | > 100 | 0.704 | > 25.4 | 393 | > 32.5 | 404 | > 35.7 | 200 | 3.85 | 0.507 | 9.37 | 566 | > 51.8 | 11.6 | > 100 | > 51.1 | 382 | > 100 | 636 |
| Oc1c(C(Nc2ccccc2Br)c2ccccc2)ccc2cccnc12 (centres undefined) | 2220 | 6.41 | 2.46 | > 100 | 3850 | 84.3 | 2470 | > 100 | 4000 | 70.2 | 1.44 | 24.5 | 3920 | > 100 | 2.33 | > 100 | 13.4 | 1390 | 7.33 | 674 |
| CN(C)c1ccc(Nc2c3ccccc3nc3ccccc23)cc1 | 1290 | 3.13 | 0.425 | 1.9 | 530 | 2.34 | 1320 | 4.54 | 685 | 2.33 | 1.12 | 2.93 | 1340 | 5.41 | 1.63 | 9.32 | 2.7 | 1190 | 2.98 | 1120 |
| CNC(=O)NCC1OC(n2cnc3c(NC(=O)Nc4ccccc4)ncnc32)C(O[Si](C)(C)C(C)(C)C)C1O[Si](C)(C)C(C)(C)C (centres undefined) | 2040 | 3.71 | 2.9 | 12.8 | 2020 | 3.74 | 2130 | 4.14 | 3410 | 29.1 | 3.72 | 20.7 | 2690 | > 100 | 4.57 | > 100 | 10.8 | 3980 | 23.6 | 2960 |
| CCCCCCCCCCCC1=NC(C)(C)CN1C(C)(C)CO | 1930 | 3.89 | 6.53 | 19.6 | 1920 | 4.1 | 1720 | 3.14 | 1730 | 3.5 | 2.41 | 5.76 | 3110 | 12.8 | 5.15 | 20.2 | 4.77 | 1860 | 3.54 | 1900 |
| Cc1ccc2nc3ccccc3c(NCc3ccc(Cl)cc3)c2c1 | 5530 | 12.1 | 3.93 | 12.7 | 1800 | 7.73 | 6500 | 13.5 | 6490 | 12.9 | 4.72 | 12.4 | 2190 | 8.9 | 6.21 | 12.7 | 11.6 | 6890 | 14 | 3850 |
| O=C(CCN1CCCC1)Nc1ccc2c(NCc3ccccc3)c3ccccc3nc2c1 | 684 | 1.99 | 0.352 | 1.68 | 324 | 1.7 | 439 | 1.85 | 481 | 1.69 | 11.9 | 55 | 442 | 2.03 | 0.408 | 1.83 | 1.73 | 454 | 1.67 | 395 |
| NC(=N\N=C/c1ccc(O)cc1)/C(N)=N\N=C/c1ccc(O)cc1 | 21100 | > 100 | > 25.5 | > 100 | > 100000 | > 100 | 1750 | > 100 | 4880 | > 100 | > 100 | > 100 | > 29000 | > 100 | 62.5 | > 100 | > 100 | 2220 | > 52 | 19500 |
| C[C@H]1[C@H](C)N1CC(O)Cn1ccnc1[N+](=O)[O-] (some centres undefined) | – | > 100 | – | > 100 | – | > 100 | – | > 100 | – | > 100 | – | > 100 | – | > 100 | – | > 100 | > 100 | – | > 100 | – |
| O=C(O)C(Cc1cnc[nH]1)N1C(=O)c2ccccc2C1=O (centres undefined) | – | > 100 | – | > 100 | – | > 100 | – | > 100 | – | > 100 | – | > 100 | – | > 100 | – | > 100 | > 100 | – | > 100 | – |
| [2H]C([2H])([2H])NC(=O)c1nnc(NC(=O)C2CC2)cc1Nc1cccc(-c2ncn(C)n2)c1OC | 28400 | > 100 | 50.1 | > 100 | 44600 | > 100 | 32100 | > 100 | 56700 | > 100 | 51.3 | > 100 | 29500 | > 100 | > 100 | > 100 | > 100 | 91600 | > 100 | 59500 |
| Cc1ccc(/C=C/c2c(C(=O)/C=C/c3ccccc3)c(C)nc3ccccc23)cc1 | 1630 | 3.05 | 2.04 | 5.6 | 1630 | 9.5 | 1720 | 3.36 | 2100 | 5.59 | 2.24 | 5.85 | 1840 | 5.05 | 1.66 | 3.08 | 2.87 | 1580 | 3.16 | 1500 |
